The record followed here is patent US11291719B2, “Methods and compositions for modulating Akt3” (Augusta University Research Institute, Inc., priority 2016, dated 2022).

In one series the test system is experimental colitis. The series is described as follows: Experimental colitis model. Type of series: in vivo, mouse. The settings on record: Rag-/- colitis mice. An excerpt:
FIG. 20A is a schematic illustration of the experimental design of a colitis model. FIG. 20B is a line graph representing weight (g) over time (days post-injection) for control (●), iTreg (▪), mJJ64A+iTreg (▴), and mJJ64A (∘) treated colitis mice. FIG. 20C is a line graph representing normalized weight over time (days post-injection) for control (●), iTreg (▪), mJJ64A+iTreg (▴), and mJJ64A (∘) treated colitis mice. FIG. 20D is a line graph showing percent survival of untreated (●), iTreg (blue circle), mJJ64A+iTreg (▾), and mJJ64A (red circle) treated colitis mice. The X-axis represents time (days) and the Y-axis represents percent survival. FIG. 20E-20I are representative photos of untreated (FIG. 20E), iTreg treated (FIG. 20F), JJa treated iTreg (FIG. 20G), untreated (FIG. 20H), and mJJ64A treated (FIG. 20I) colitis mice. […] FIG. 21A is a photo showing representative colons from untreated (UT), iTreg, mJJ64A treated iTreg, mJJ64A, and wild-type (WT) mice. FIG. 21B is a bar graph representing length and weight of colons from normal, untreated (UT), iTreg, mJJ64A, and mJJ64A+iTreg mice. The X-axis represents the treatment group and the Y-axis represents colon weight/length (mg/mm). […]

In the next series the test system is human iTregs. The series is described as follows: Induction and viability of human iTregs. In kind it is cell-based. The source says:
FIG. 11A is a bar graph showing the percent of live human iTregs in cells treated with various concentrations of mJJ64A. The X-axis represents treatment group and the Y-axis represents percent of live cells. FIG. 11B is a bar graph showing the percent of FoxP3^+CD4^+ cells in human iTregs treated with various concentrations of mJJ64A. The X-axis represents treatment group and the Y-axis represents percent of FoxP3^+CD4^+ cells. FIG. 11C is a bar graph showing the percent of TGFβ^+ expressing cells in human iTregs treated with various concentrations of mJJ64A. The X-axis represents treatment group and the Y-axis represents percent of TGFβ^+ expressing cells.

The next series has as its system Tregs. Briefly: Percent of Tregs in Rag-/- mice. The conditions noted are these: compared to untreated. In kind it is in vivo, mouse. An excerpt: FIG. 22A is a bar graph showing the number of CD4^+ T cells per 10^6 live cells in the spleen of WT, UT, iTreg, mJJ64A, and mJJ64A treated iTreg treated Rag^−/− mice. The X-axis represents treatment group and the Y-axis represents number of CD4^+ cells per 10^6 live cells. FIG. 22B is a bar graph showing the percent of FoxP3^+ cells per CD4^+ T cells in the spleen of WT, UT, iTreg, mJJ64A, and mJJ64A treated iTreg treated Rag^−/− mice. The X-axis represents treatment group and the Y-axis represents number of FoxP3^+ cells per CD4^+ cells. FIG. 22C is a bar graph showing the percent of FoxP3^− cells per CD4^+ T cells in the spleen of WT, UT, iTreg, mJJ64A, and mJJ64A treated iTreg treated Rag^−/− mice. The X-axis represents treatment group and the Y-axis represents number of FoxP3^− cells per CD4^+ cells. FIG. 22D is a bar graph showing the number of CD4^+ T cells per 10^6 live cells in the lymph node of WT, UT, iTreg, mJJ64A, and mJJ64A treated iTreg treated Rag^−/− mice. The X-axis represents treatment group and the Y-axis represents number of CD4^+ cells per 10^6 live cells. FIG. 22E is a bar graph showing the percent of FoxP3^+ cells per CD4^+ T cells in the lymph node of WT, UT, iTreg, mJJ64A, and mJJ64A treated iTreg treated Rag^−/− mice. The X-axis represents treatment group and the Y-axis represents number of FoxP3^+ cells per CD4^+ cells. […]

SMILES strings stand for the structures.

As to `N#Cc1ccc2nccc(Nc3ccc(C(=O)Nc4ccc(Nc5ccncc5)cc4)cc3)c2c1` [Compound 2], the “protection against experimental colitis” value with experimental colitis is “protected”. In addition, the “induction of human iTregs” value with human iTregs (percent FoxP3+CD4+ and TGFβ+ cells) is “induced”. Besides, the “cell viability of human iTregs” value in the series on human iTregs (percent of live cells) is given as “did not affect”. In the series on Tregs, the “percent of Tregs in the spleen and mesenteric lymph nodes” value is listed as “increased”.
